Read-outs that look alike come from different tables or passages of the source.
Key:
ZR-75-1 cells [1] = assay: Reversal of DFMO-induced growth inhibition by exogenous spermidine; assay type: cell-based, human; settings: 11 days
Protocol: Effect of Inhibitors on Cell Proliferation--For growth studies, ZR-75-1 cells were cultured in MEZR medium or in phenol red-free RPMI 1640 supplemented with 2 mM L-glutamine, 1 mM sodium pyruvate, 15 mM Hepes, antibiotics, 1 nM 17β-estradiol, 0.5 μg of bovine insulin per ml and 5% (v/v) charcoal-treated fetal bovine serum (SD medium), as indicated in the text. When polyamines or polyamine analogs were added to serum-containing media, 1 mM aminoguanidine was added to inhibit bovine serum amine oxidase (BSAO) activity (Morgan, D. M. L. 1989. in The Physiology of Polyamines (Bachrach, U., and Helmer, Y. M. eds) Vol. I, pp. 203-229, CRC Press, Boca Raton). The effect of the transport inhibitors on cell growth was measured by incubating ZR-75-1 cells for 11 days in medium supplemental with antagonist, polyamines and/or 1 mM DFMO as indicated, followed by colorimetric determination of DNA content with 3,5-diaminobenzaic acid (Simard, J., Dauvois, S., Haagensen, D. E., Levesque, C., Merand, Y. and Labrie, F. 1990. Endocrinology 126: 3223-3231). Medium was changed every other day in these experiments because of the slow reaction of the compound with an unknown component present in the IMEM and RPMI 1640 medium formulation.

polyamine transporter [2] = settings: ZR-75-1 cells; compound as its own substrate; read-out: Km, spermidine transport; cited from earlier work
ZR-75-1 cells [3] = settings: background; cited from earlier work
polyamine transporter [4] = assay: Putrescine uptake ([3H]putrescine) in ZR-75-1 cells; assay type: cell-based, human; settings: FIG. 3
Protocol: (§1) J. Biol. […] Endocrinology 126: 3223-3231). […] Cell cultures were then washed twice with 1 ml PBS containing 5.7 mM sym-norspermidine. Cells were then lysed with 200-μl aliquot of 1 N NaOH and incubated for 30 minutes at 60° C. After neutralization with 200 μl of 1 N HCl, radioactivity was determined from a 250-μl of the cell lysate by scintillation counting. Uptake activity was expressed per amount of total cellular protein as determined by the method of Bradford (Bradford, M. M. 1976. Anal. Biochem. 72: 248-254). Non-specific binding of radioactive substrate was similarly determined in parallel for both cell lines after a 15 second-incubation with 400 μl of ice-cold uptake solution. […] Km, Ki and Vmax values were then estimated by Line-weaver-Burke analysis. For competitive inhibitors, Ki values were also estimated by measuring uptake activity in the presence of logarithmically increasing concentrations of antagonist, and using the Cheng-Prusoff equation (Cheng. Y. -C. and Prusoff, W. H. 1973. Biochem. Pharmacol. 22: 3099-3108) by iterative curve fitting for a sigmoidal curve. For mixed competitive/noncompetitive inhibition, two methods were used to calculate kinetic constants. […] C. 1976. Enzymes, 3rd Ed., Academic Press, San Diego, Calif.). […] C. 1976. Enzymes, 3rd Ed., Academic Press, San Diego, Calif.).

polyamine transporter [5] = assay: Spermidine uptake ([3H]spermidine) in ZR-75-1 cells; assay type: cell-based, human; settings: FIG. 3
Protocol: as §1

ZR-75-1 cells [6] = assay: Effect of inhibitors on cell proliferation (11 days, DNA content); assay type: cell-based, human; settings: 11 days
Protocol: Effect of Inhibitors on Cell Proliferation--For growth studies, ZR-75-1 cells were cultured in MEZR medium or in phenol red-free RPMI 1640 supplemented with 2 mM L-glutamine, 1 mM sodium pyruvate, 15 mM Hepes, antibiotics, 1 nM 17β-estradiol, 0.5 μg of bovine insulin per ml and 5% (v/v) charcoal-treated fetal bovine serum (SD medium), as indicated in the text. […] M. L. 1989. in The Physiology of Polyamines (Bachrach, U., and Helmer, Y. M. eds) Vol. I, pp. 203-229, CRC Press, Boca Raton). […] Endocrinology 126: 3223-3231). Medium was changed every other day in these experiments because of the slow reaction of the compound with an unknown component present in the IMEM and RPMI 1640 medium formulation.

polyamine transporter [7] = settings: ZR-75-1 cells; compound as its own substrate; read-out: Km, spermine transport; cited from earlier work
[8] = secondary amino group of the spermine head; cited from earlier work

SMILES | Concentration completely reversing growth inhibition by 1 mM DFMO (ZR-75-1 cells [1]) [µM] | Inhibition of cell proliferation (ZR-75-1 cells [1]; concentrations superior to 0.3 μM, FIG. 8) | Km (polyamine transporter [2]) [µM] | Concentration completely reversing DFMO-induced growth inhibition (ZR-75-1 cells [3]) [nM] | Ability to compete against [3H]putrescine uptake, fold higher than that of DESC (polyamine transporter [4]) | Ability to compete against [3H]spermidine uptake, fold higher than that of DESC (polyamine transporter [5]) | Effect on cell growth (ZR-75-1 cells [6]; 50 μM) | Influence of 1 mM aminoguanidine on the growth effect of the compound (ZR-75-1 cells [6]; spermine 50 μM, MESC 200 μM, DEASC 50 μM) | Km (polyamine transporter [7]) [µM] | pKa [8]
NCCCCNCCCN [Spermidine, N-[3-aminopropyl]-1,4-diaminobutane] | 0.3 | up to 20% | 0.49 ± 0.15 | 300 |  |  |  |  |  | 
NCCCNCCCCNCCCN [Spermine, N,N'-bis-[3-aminopropyl]-1,4-butane-diamine, reference compound] |  |  |  |  | about 7 fold | about 7 fold | acutely cytotoxic | only partly prevented by aminoguanidine | 0.2 ± 0.06 | 8.9-9.8

— patent US6083496A, “Polyamine transport inhibitors” (priority 1996, dated 2000)
